Measured values: PubChem BioAssay (NCI)
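All cell lines were grown in 96-well plates and treated with compound for 48 hours. The concentration for 50% growth inhibition is given as GI50. At the TGI there is no net growth.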

Experiments:
Assay in all cases: NCI-60 cell line screen, 48 h
NCI-H226 lung = tested on: NCI-H226 lung
HL-60(TB) leukemia = tested on: HL-60(TB) leukemia
PC-3 prostate = tested on: PC-3 prostate
LOX IMVI melanoma = tested on: LOX IMVI melanoma
SK-OV-3 ovarian = tested on: SK-OV-3 ovarian
MDA-MB-231 breast = tested on: MDA-MB-231 breast
U251 CNS = tested on: U251 CNS
SNB-19 CNS = tested on: SNB-19 CNS
NCI/ADR-RES ovarian = tested on: NCI/ADR-RES ovarian
OVCAR-3 ovarian = tested on: OVCAR-3 ovarian
HOP-92 NSCLC = tested on: HOP-92 NSCLC
UACC-257 melanoma = tested on: UACC-257 melanoma
HS 578T breast = tested on: HS 578T breast
NCI-H522 lung = tested on: NCI-H522 lung
OVCAR-8 ovarian = tested on: OVCAR-8 ovarian
NCI-H460 lung = tested on: NCI-H460 lung
SR leukemia = tested on: SR leukemia
RXF 393 renal = tested on: RXF 393 renal
COLO 205 colon = tested on: COLO 205 colon
HCC-2998 colon = tested on: HCC-2998 colon
OVCAR-4 ovarian = tested on: OVCAR-4 ovarian
ACHN renal = tested on: ACHN renal
SF-295 CNS = tested on: SF-295 CNS
DU-145 prostate = tested on: DU-145 prostate
786-0 renal = tested on: 786-0 renal
A549 NSCLC = tested on: A549 NSCLC
SK-MEL-2 melanoma = tested on: SK-MEL-2 melanoma
RPMI-8226 leukemia = tested on: RPMI-8226 leukemia
CCRF-CEM leukemia = tested on: CCRF-CEM leukemia

Cc1cc(Cl)ccc1Nc1nc(C(F)(F)F)ccc1C(=O)N/N=C/c1cccc(O)c1
GI50 (NCI-H226 lung): 3.74 µM | TGI (NCI-H226 lung): 20.1 µM | GI50 (HL-60(TB) leukemia): 2.11 µM | TGI (HL-60(TB) leukemia): 4.97 µM | GI50 (PC-3 prostate): 2.96 µM | TGI (PC-3 prostate): 12.9 µM | GI50 (LOX IMVI melanoma): 3.18 µM | TGI (LOX IMVI melanoma): 13.6 µM | GI50 (SK-OV-3 ovarian): 1.23 µM | TGI (SK-OV-3 ovarian): 10.6 µM | GI50 (MDA-MB-231 breast): 4.77 µM | TGI (MDA-MB-231 breast): 35.4 µM | GI50 (U251 CNS): 4.51 µM | TGI (U251 CNS): 19.8 µM | GI50 (SNB-19 CNS): 2.37 µM | TGI (SNB-19 CNS): 11.9 µM | GI50 (NCI/ADR-RES ovarian): 4.78 µM | TGI (NCI/ADR-RES ovarian): 17.6 µM | GI50 (OVCAR-3 ovarian): 1.48 µM | TGI (OVCAR-3 ovarian): 12.7 µM | GI50 (HOP-92 NSCLC): 3.36 µM | TGI (HOP-92 NSCLC): 13.9 µM | GI50 (UACC-257 melanoma): 11.5 µM | TGI (UACC-257 melanoma): 38.2 µM | GI50 (HS 578T breast): 2.11 µM | TGI (HS 578T breast): 11.5 µM | GI50 (NCI-H522 lung): 8.28 µM | TGI (NCI-H522 lung): > 41 µM | GI50 (OVCAR-8 ovarian): 1.68 µM | TGI (OVCAR-8 ovarian): 15.3 µM | GI50 (NCI-H460 lung): 3.57 µM | TGI (NCI-H460 lung): 12.8 µM | GI50 (SR leukemia): 0.836 µM | TGI (SR leukemia): 4.49 µM | GI50 (RXF 393 renal): 0.194 µM | TGI (RXF 393 renal): 11.3 µM | GI50 (COLO 205 colon): 1.17 µM | TGI (COLO 205 colon): 9.55 µM | GI50 (HCC-2998 colon): 3.13 µM | TGI (HCC-2998 colon): 13.8 µM | GI50 (OVCAR-4 ovarian): 1.13 µM | TGI (OVCAR-4 ovarian): 14.6 µM | GI50 (ACHN renal): 4.19 µM | TGI (ACHN renal): > 31.8 µM | GI50 (SF-295 CNS): 0.159 µM | TGI (SF-295 CNS): 1.1 µM | GI50 (DU-145 prostate): 3.66 µM | TGI (DU-145 prostate): 15.2 µM | GI50 (786-0 renal): 4.01 µM | TGI (786-0 renal): 13.3 µM | GI50 (A549 NSCLC): 8.15 µM | TGI (A549 NSCLC): 25.5 µM | GI50 (SK-MEL-2 melanoma): 2.09 µM | TGI (SK-MEL-2 melanoma): 12.7 µM | GI50 (RPMI-8226 leukemia): 2.51 µM | TGI (RPMI-8226 leukemia): 9.68 µM | GI50 (CCRF-CEM leukemia): 0.449 µM | TGI (CCRF-CEM leukemia): 2.41 µM
